Earlier results in US20040132104A1, “Vitamin D assay” (priority 2003, published 2004).

Biological target: T1, Vitamin D binding protein (Homo sapiens, UniProt P02774)
T1 sequence (P02774 17-474): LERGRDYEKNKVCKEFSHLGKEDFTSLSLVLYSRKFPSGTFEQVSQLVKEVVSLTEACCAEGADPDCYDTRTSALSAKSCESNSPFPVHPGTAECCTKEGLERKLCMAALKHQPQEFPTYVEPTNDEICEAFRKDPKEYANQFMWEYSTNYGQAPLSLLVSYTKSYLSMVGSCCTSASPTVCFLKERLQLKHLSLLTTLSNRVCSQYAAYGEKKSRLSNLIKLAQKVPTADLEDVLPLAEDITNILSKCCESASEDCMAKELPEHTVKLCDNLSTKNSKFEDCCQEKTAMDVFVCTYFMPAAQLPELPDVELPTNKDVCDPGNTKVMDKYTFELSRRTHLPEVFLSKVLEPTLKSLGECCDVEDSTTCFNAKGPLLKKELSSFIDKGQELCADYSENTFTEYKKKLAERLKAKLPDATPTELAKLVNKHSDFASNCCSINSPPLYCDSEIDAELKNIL
Settings: Vitamin D binding protein affinity for 25-OH Vitamin D

## 25-hydroxy-vitamin D [25-OH Vitamin D]
  affinity: 5e+08 M⁻¹
